# Active and inactive are the calls of the source. The rule behind the calls is not given here.
# Test system: Candida albicans
# Assay: Antimicrobial activity against Candida albicans ATCC 32354
# Format: functional, organism-based
smiles,measurement,value
CC1=C(O)C(C)(CCCCCC(C)CCCCc2ccc(O)cc2)OOC1=O (stereo unspecified),Activity,inactive

# From ChEMBL document CHEMBL1158995, “A novel perlactone from the Caribbean sponge Plakortis angulospiculatus” (J Nat Prod, 1991)
